Experimental data as given in PMC4398458, “Reversible Linkage of Two Distinct Small Molecule Inhibitors of Myc Generates a Dimeric Inhibitor with Improved Potency That Is Active in Myc Over-Expressing Cancer Cell Lines” (PLoS ONE, 2015).

Experiments:
Myc:Max interaction = target: T1, Myc:Max interaction (Homo sapiens, UniProt P01106); test: Cell-free Myc:Max ELISA; format: biochemical; details: average with standard deviation; combinations as equimolar (1:1) titrations, concentration of each monomer; read-out: ELISA (IC50), inhibition of cell-free MYC-MAX heterodimer formation
T1 construct: purchased Origene (Myc); Sino Biologicals (Max)
Description: High binding 96-well plates were coated with GST-conjugated full-length Max protein (Sino Biologicals) at 1ng/μL in 100μl of PBS overnight at 4°C. The plate was washed 4x 200 μl/well with PBS and blocked in 200 μl/well of 5% nonfat dry milk in PBS for 2 hours at room temperature. […] Compounds were serially diluted in 100% DMSO and then sequentially diluted […] into the Myc solution before incubation for one hour at room temperature. For internal consistency, final DMSO concentrations were kept at 2%. The blocked plate was washed 4x 200μl/well with Buffer A, before addition of 100 μl of the Myc compound mixture. Plates were incubated for four hours at RT, and washed 4x 200 μl Buffer A/well. Anti-Myc antibody (Cell Signaling) was diluted 1:1000 in 5% nonfat dry milk in Buffer A. 100 μL/well diluted primary antibody was added to each well and incubated for one hour at room temperature. Plates were washed 4x 200 μl/well Buffer A. HRP-conjugated goat anti-rabbit antibody (GE Healthcare) was diluted 1:5000 in 5% nonfat dry milk in Buffer A. 100 μL/well diluted secondary antibody was added to each well and incubated for thirty minutes at room temperature. The plates were washed 4x 200 μL/well Buffer A. 50 μL/well of FEMTO chemiluminescent reagent (Thermo Scientific) was added, and luminescence was immediately read on a Victor X5 plate reader (PerkinElmer) with a 0.1 sec integration time. IC50s were generated through non-linear fitting of data with prism (GraphPad).
We next asked whether the binding of these dimers to Myc could disrupt the interaction with its transcriptional partner Max. We developed an ELISA using purified Myc and Max protein that allowed us to measure effects on Myc:Max binding. The ELISA plate was initially coated with Max protein and the compounds pre-incubated with Myc protein prior to addition to the Max-coated plate. After extensive washing, Myc binding to Max was detected using an anti-Myc antibody. […] We observe similar effects for the dimeric inhibitor E08+N11 (Table 1).

[1] = target: T2, His-tagged bHLH-LZ domain of human Myc protein (aa353-439) (Homo sapiens, UniProt P01106); test: Surface Plasmon Resonance binding to immobilized Myc; details: average KD, equilibrium fit, 25°C; combinations as equimolar titrations; read-out: SPR (Kd), direct MYC binding
T2 construct: human Myc protein (aa353-439, Cayman Chemicals, Ann Arbor, MI); purchased Cayman Chemicals
Description: All SPR experiments were performed on a Bio-Rad XPR36 instrument at 25°C. His-tagged bHLH-LZ domain of human Myc protein (aa353-439, Cayman Chemicals, Ann Arbor, MI) was immobilized in running buffer (20 mM Na-phosphate, pH 7.5, 300 mM NaCl, 4 mM KCl,. 05% Tween20) in the absence of DMSO at 25μL/min for 400 seconds on Bio-Rad HTE (Ni-NTA) chips with a resulting RU value of about 4500 after immobilization. Compound binding was analyzed in the same running buffer with a final DMSO concentration of 2%. Compounds were injected at 30μL/min for 180 seconds with a dissociation time of 300 seconds. Injections consisted of 5 concentrations of compounds plus a blank channel for reference that flowed over all immobilized ligands in a matrix format. Regeneration steps were not required due to the rapid dissociation of compounds. Equilibrium fits were performed with the ProteOn software after inter-spot and reference channel subtractions.
We next analyzed whether these dimeric inhibitors could directly bind to Myc. To do this we developed a Surface Plasma Resonance (SPR) assay to compare the binding affinities of the monomers to that of the dimeric inhibitors. We immobilized the bHLHZip domain of Myc to the surface of a Ni-NTA chip via a His-tag and measured binding affinities for the monomers or dimers. […] We observed similar data with the E08+N11 dimer.

Daudi cells = test: Cell proliferation / viability assay and Bliss synergy analysis; format: cell-based; details: concentrations up to 30 μM, 3 days
Description: K562 (CCL-243), Daudi (CCL-213), Raji (CCL-86) and MV4-11(CCL-9591) cells were purchased directly from American Type Culture Collection (Manassas, VA) and routinely cultured under recommended conditions. Growth and proliferation was determined by use of Cell Titer 96 Aqueous One Solution (Promega, Madison, WI). All cells were plated at 10,000 cells per well in growth media in a clear 96 well plate. After 3 days of compound treatment reagent was added, and absorbance at 490 nm was read after incubation for 4 hours at 37°C. A control plate of compound diluted in media at the same concentrations was treated in a similar way and these values subtracted from the cell plate data to control for any compound interference in the assay. Synergy was determined using the Bliss model of independence.
We screened pairwise combinations of monomers from our libraries in a cell proliferation assay. Increasing concentrations of each compound were dosed in an 8x6 matrix format and their effects on cell proliferation monitored. […] The majority of the combinations were additive in nature, a result consistent with the combination of the two parent ligands C01 and C02 (S1 Fig.). We identified a number of combinations that were synergistic, and representative graphs showing dose dependent inhibition of proliferation with 2 different combinations (E07+N12 and E08+N11) are shown (Fig. 2 A and B). There was no activity of the individual compounds E07, E08, N12, or N11 in the proliferation assay at concentrations up to 30 μM.
Our cell-free experiments had clearly shown that the ability for self-assembly of the dimer was important in driving the improved inhibitory effect versus the Myc protein. To test this in a cellular context we compared the effect on cell viability of the E08+N11 dimer versus its non-dimerizable control combination E08+C11. […] Similar effects on cell viability and Myc protein levels were also observed for the dimer E07+N12 but not its non-dimerizable control E07+C12 (S5 Fig.).

[2] = target: T3, Myc:Max heterodimers in complex with E-box DNA (Homo sapiens, UniProt P01106); test: Electrophoretic mobility shift assay (EMSA), Myc:Max heterodimer binding to DNA; format: biochemical; details: cell-free EMSA, E-box oligonucleotide
T3 construct: c-Myc residues Asn352 to Ala439; 6xHis (N); TEV cleavage site (N); purchased Cayman Chemical (Myc, custom expression); Sino Biologicals (Max) #12885-H20B (Max); host or cells: E. coli BL21StarDE3 (Myc)
Description: Human c-Myc (NP_002458.2) containing the bHLH-LZ domain was cloned into a modified pET21a vector and then transformed into the BL21StarDE3 expression system, expressed, and purified at Cayman Chemical. The construct consists of an N-terminal 6xHis tag with a TEV cleavage site, c-Myc residues Asn352 to Ala439, and a GGCD C-terminal extension (molecular weight 12.9 kDa). Compounds were added to 200 ng c-Myc in reaction buffer (100 mM KCL, 1 mM DTT, 1 mM EDTA, 50 mM Tris pH7.4, 5mM MgCl2, 0.002% NP40) and incubated for 60 minutes at room temperature. […] Finally, annealed double-stranded E-box containing DNA oligonucleotide with sequence 5’-[…]-3’ was added to a final concentration of 100 nM for twenty minutes incubation at room temperature. The final concentration of DMSO was kept constant at 2%. The protein-DNA complexes (final volume 10 μl) were resolved on NativePAGE Novex 4–16% Bis-Tris Protein Gels (Life technologies, #BN1002BOX) at 4°C with pre-chilled TBE (89 mM Tris-borate, 1 mM EDTA) at 125V for 90 minutes. SYBR Green EMSA Nucleotide Acid gel stain (Molecular Probes, #E33075) was used to stain dsDNA and DNA-protein complexes. Images were captured with an Alpha Innotech FluorChem Q imager installed with AlphaView software.
The formation of the Myc:Max heterodimer is required for its ability to bind to DNA sequences and trigger transcriptional activation of Myc-dependent genes. […]

[3] = target: T4, Max:Max homodimers in complex with E-box DNA (Homo sapiens, UniProt P61244); test: Electrophoretic mobility shift assay (EMSA), Max:Max homodimer binding to DNA; format: biochemical; details: cell-free EMSA, E-box oligonucleotide
T4 construct: His-tagged and GST-tagged full-length human Max protein; purchased Sino Biologicals #12885-H20B

Max = Max (human, UniProt P61244 1-160); test: EMSA; Max:Max homodimer, no Myc; EMSA: 100 mM KCl, 1 mM DTT, 1 mM EDTA, 50 mM Tris pH 7.4, 5 mM MgCl2, 0.002% NP40, 2% DMSO, room temperature; 200 ng Myc, 350 ng Max, 100 nM DNA, 10 ul; gel run in TBE at 4 C; details: protein: commercial; tags: His and GST; chain copies: 2; label: none (SYBR Green stain); (only one strand given)
Chain of Max (P61244 whole entry): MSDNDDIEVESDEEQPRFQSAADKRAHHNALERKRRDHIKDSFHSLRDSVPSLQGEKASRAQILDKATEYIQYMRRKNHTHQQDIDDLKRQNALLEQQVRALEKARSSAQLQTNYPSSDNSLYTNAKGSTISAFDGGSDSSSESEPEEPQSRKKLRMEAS

T1 sequence (P01106 whole entry): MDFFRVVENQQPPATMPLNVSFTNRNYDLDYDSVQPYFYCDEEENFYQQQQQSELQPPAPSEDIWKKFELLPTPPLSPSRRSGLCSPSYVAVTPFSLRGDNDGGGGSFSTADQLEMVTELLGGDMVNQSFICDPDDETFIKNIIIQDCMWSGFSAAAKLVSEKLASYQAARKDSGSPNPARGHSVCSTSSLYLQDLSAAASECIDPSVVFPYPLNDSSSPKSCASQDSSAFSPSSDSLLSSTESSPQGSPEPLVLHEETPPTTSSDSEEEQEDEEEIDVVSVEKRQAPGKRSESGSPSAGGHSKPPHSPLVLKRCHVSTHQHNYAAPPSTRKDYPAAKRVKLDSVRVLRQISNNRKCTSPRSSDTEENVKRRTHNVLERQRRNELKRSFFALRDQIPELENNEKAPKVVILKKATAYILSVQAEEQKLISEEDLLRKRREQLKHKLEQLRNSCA
T2 sequence (P01106 368-454): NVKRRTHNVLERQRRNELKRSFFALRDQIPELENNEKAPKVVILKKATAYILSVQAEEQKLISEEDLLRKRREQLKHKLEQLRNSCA
T3 sequence (P01106 with tags, fused parts or gaps): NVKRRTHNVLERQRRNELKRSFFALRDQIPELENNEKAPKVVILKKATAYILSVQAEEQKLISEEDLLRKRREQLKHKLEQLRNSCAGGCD

Row | Molecule | IC50 (Myc:Max interaction) [µM] | Kd [1] [µM] | activity of the individual compounds in the proliferation assay (Daudi cells) | effect on Myc:Max complex binding to DNA (gel mobility shift) [2] | effect on Max:Max complex binding to DNA (gel mobility shift) [3] | binding result (Max)
1 | CCc1ccc(/C=C2\SC(=O)NC2=O)cc1 [C01, reference compound] | > 30 | – | – | – | – | –
2 | NC(=O)c1ccccc1Nc1ccc([N+](=O)[O-])c2nonc12 [C02, 2-((7-Nitrobenzo[c][1,2,5]oxadiazol-4-yl)amino)benzamide, reference compound] | > 30 | – | – | – | – | –
3 | CCc1ccc(/C=C2\SC(=O)N(CCNC(=O)[C@@H]3C[C@H]4C=C[C@H]3C4)C2=O)cc1 [C11] | > 30 | > 50 | – | – | – | –
4 | CCc1ccc(/C=C2\SC(=O)N(CC[C@@H]3C[C@@H]4C=C[C@H]3C4)C2=O)cc1 [C12] | > 30 | > 50 | – | – | – | –
5 | O=C(NCc1cccc(B(O)O)c1)c1ccccc1Nc1ccc([N+](=O)[O-])c2nonc12 [E07] | 24 ± 7.4 | 42 ± 10 | no activity | Neither of the two monomers, E07 or N12, had any noticeable effect | Neither of the two monomers, E07 or N12, had any noticeable effect | –
6 | O=C(NCc1ccc(B(O)O)cc1)c1ccccc1Nc1ccc([N+](=O)[O-])c2nonc12 [E08] | > 30 | 47 ± 9 | no activity | – | – | –
7 | CCc1ccc(/C=C2\SC(=O)N(CCNC(=O)[C@@H]3C[C@@H]4C[C@H]3[C@@H](O)[C@H]4O)C2=O)cc1 [N11] | > 30 | > 50 | no activity | – | – | –
8 | CCc1ccc(/C=C2\SC(=O)N(CC[C@@H]3C[C@H]4C[C@@H]3[C@H](O)[C@@H]4O)C2=O)cc1 [N12] | > 30 | > 50 | no activity | Neither of the two monomers, E07 or N12, had any noticeable effect | Neither of the two monomers, E07 or N12, had any noticeable effect | –
9 | E-box oligonucleotide (dsDNA) DNA 1: GATCAGTTGACCACGTGGTCTGGG DNA 2: CCCAGACCACGTGGTCAACTGATC | – | – | – | – | – | binds
